The values below come from publication PMC11532403 (Signal Transduction and Targeted Therapy, 2024).

The structures appear in SMILES notation.

Series [1] has as its target T1, CYP3A4 (Homo sapiens, UniProt P08684).
T1 construct: substrates of different CYP450 enzymes in mixed human liver microsomes; from tissue; host or cells: mixed human liver microsomes
As to the kind of experiment: CYP inhibition in human liver microsomes. Format: in vitro ADME. The following applies: mixed human liver microsomes, 0.5-25 μM.

Series [2] addresses hERG potassium channel (Homo sapiens, UniProt Q12809). Briefly: hERG whole-cell patch clamp. Format: cell-based. To be noted: ± 368.5 nM, read-out: hERG current IC50. The text has this:
The rapidly activating potassium channel encoded by the human ether a-go-go-related gene (hERG) is an important ion channel involved in the formation of phase 3 repolarisation of the myocardial action potential. Pharmacological blockade of hERG channels can lead to prolonged cardiac repolarisation with the electrocardiographic manifestation of a prolonged QT interval, known as long QT interval syndrome. Drug-induced delayed ventricular repolarisation can in some cases lead to a fatal arrhythmia, tip-twist ventricular tachycardia.
(hERG is a cardiac potassium channel; its block is linked to QT prolongation.)

hERG potassium channel, sequence (Q12809 whole entry): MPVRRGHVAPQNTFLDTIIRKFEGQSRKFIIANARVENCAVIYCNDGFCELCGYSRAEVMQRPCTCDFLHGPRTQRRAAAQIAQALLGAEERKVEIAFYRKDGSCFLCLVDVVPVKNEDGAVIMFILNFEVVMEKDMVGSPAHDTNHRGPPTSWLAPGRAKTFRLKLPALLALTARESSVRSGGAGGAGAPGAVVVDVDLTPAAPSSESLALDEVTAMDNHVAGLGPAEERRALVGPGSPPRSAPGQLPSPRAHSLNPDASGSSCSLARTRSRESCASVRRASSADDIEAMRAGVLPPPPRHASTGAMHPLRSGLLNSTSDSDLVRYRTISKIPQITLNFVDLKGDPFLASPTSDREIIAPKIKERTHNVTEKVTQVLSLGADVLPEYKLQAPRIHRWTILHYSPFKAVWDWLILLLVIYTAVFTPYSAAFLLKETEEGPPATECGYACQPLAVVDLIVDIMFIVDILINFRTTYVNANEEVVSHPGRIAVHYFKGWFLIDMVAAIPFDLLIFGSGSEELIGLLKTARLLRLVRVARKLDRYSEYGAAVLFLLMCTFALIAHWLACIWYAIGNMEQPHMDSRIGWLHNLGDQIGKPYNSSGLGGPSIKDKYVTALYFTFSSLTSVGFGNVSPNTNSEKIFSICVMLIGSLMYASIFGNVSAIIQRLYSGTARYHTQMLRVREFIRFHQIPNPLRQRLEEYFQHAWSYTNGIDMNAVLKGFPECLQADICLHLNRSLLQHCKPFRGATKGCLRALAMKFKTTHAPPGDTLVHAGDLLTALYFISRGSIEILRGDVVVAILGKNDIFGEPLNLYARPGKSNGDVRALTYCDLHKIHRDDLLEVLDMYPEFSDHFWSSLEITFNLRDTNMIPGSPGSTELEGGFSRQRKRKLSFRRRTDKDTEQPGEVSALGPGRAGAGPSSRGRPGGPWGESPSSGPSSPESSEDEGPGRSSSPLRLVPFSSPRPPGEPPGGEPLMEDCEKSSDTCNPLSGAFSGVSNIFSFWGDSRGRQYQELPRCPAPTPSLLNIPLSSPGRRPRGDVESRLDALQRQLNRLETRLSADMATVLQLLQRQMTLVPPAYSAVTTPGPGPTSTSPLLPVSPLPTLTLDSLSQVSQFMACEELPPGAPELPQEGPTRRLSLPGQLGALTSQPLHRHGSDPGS
T1 sequence (P08684 whole entry): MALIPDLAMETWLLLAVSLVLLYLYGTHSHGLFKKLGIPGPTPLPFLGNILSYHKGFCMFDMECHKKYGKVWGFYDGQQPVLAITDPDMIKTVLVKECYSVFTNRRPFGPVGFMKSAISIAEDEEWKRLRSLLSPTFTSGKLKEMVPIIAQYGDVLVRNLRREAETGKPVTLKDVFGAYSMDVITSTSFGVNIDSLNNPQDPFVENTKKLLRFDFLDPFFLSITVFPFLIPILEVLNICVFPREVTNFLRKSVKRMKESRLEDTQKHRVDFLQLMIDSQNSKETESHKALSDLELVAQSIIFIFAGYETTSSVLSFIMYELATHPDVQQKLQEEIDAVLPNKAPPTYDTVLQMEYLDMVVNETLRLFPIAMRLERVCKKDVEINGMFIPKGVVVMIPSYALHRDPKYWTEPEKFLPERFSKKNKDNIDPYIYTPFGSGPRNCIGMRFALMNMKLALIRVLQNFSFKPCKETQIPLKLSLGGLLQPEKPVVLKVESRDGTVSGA

`COc1ccc(CN2C3CC2CN(c2ccc(-c4cc(N5CC(C)(O)C5)cn5ncc(C#N)c45)cn2)C3)cn1` [SY-5007, 6-(3-hydroxy-3-methylazetidin-1-yl)-4-(6-(6-((6-methoxypyridin-3-yl)methyl)-3,6-diazabicyclo[3.1.1]heptan-3-yl)pyridin-3-yl)pyrazolo[1,5-a]pyridine-3-carbonitrile]: the IC50 (as a rule, the concentration at which inhibition is half-maximal) came to 18 µM in series [1] and 3.3 µM in series [2].
